These are literature values, as cited in patent US9771618B2, “Methods for treating breast cancer” (Bioarray Genetics, Inc., priority 2009, dated 2017).

In this data set the test system is locally advanced breast cancer. Conditions: 24 tumors of the Chang, et al. dataset (10 of 24); response assessed after neoadjuvant chemotherapy.

`CC(=O)O[C@H]1C(=O)[C@@]2(C)[C@H]([C@H](OC(=O)c3ccccc3)[C@]3(O)C[C@H](OC(=O)[C@H](O)[C@@H](NC(=O)c4ccccc4)c4ccccc4)C(C)=C1C3(C)C)[C@]1(OC(C)=O)CO[C@@H]1C[C@@H]2O` [taxol, paclitaxel]: the “overall taxol sensitive rate” value is 41.7%.
